Tests used:
[1] = system: human tumor cell lines (HT29, MCF-7, HeLa, U2OS, and J6); experiment: Antiproliferative activity in the series of human tumor cell lines; type: cell-based; settings: MTT; concentration range of 10–500 nM
Protocol: (§1) The human colorectal adenocarcinoma (Caco-2), human colorectal adenocarcinoma (HT29), normal human intestinal (I407), human cervical cancer (HeLa), human breast cancer (MCF7), human bone osteosarcoma (U2OS), and human acute T-cell leukemia (Jurkat J6) cell lines were purchased from American Type Culture Collection (ATCC, Manassas, VA, USA). Cells were cultured in RPMI 1640 medium (Labtek Eurobio, Milan, Italy), supplemented with 10% FCS (Euroclone, Milano, Italy) and 2 mM L-glutamine (Sigma-Aldrich, Milano, Italy), at 37 °C and in a 5% CO2 atmosphere. The compounds were dissolved in DMSO in a 30–40 mM stock solution. In cell treatments, the final DMSO concentration never exceeded 0.1%.
(§2) Cells were seeded in a 96-well culture plastic plate (Sarsted, Milan, Italy), at 5 × 10^4 cells/well and, after 24 h, were exposed to increasing concentrations of the different compounds (from 1 nM to 500 nM) dissolved in RPMI 1640 medium. An MTT assay was performed according to Micheletti et al..
(§3) The absorbance at 570 nm was measured using a multi-well plate reader (Tecan, Männedorf, Switzerland), and data were analyzed by Prism GraphPad 8 software and expressed as IC50 nM.

[2] = system: HT29; experiment: MTT assay, HT29 cells; type: cell-based, human; settings: Homo sapiens, HT-29; MTT; means of four experiments; na = not active; read-out: In vitro cytotoxic activity (IC50), HT29
Protocol: as §1, §2, §3

[3] = system: HeLa; experiment: MTT assay, HeLa cells; type: cell-based; settings: Homo sapiens, means of four experiments, na = not active, read-out: In vitro cytotoxic activity (IC50), HeLa
Protocol: as §1, §2, §3

[4] = system: U2OS; experiment: MTT assay, U2OS cells; type: cell-based; settings: Homo sapiens, means of four experiments, na = not active, read-out: In vitro cytotoxic activity (IC50), U2OS
Protocol: as §1, §2, §3

[5] = system: HT29 cells; parameters: method as in PMID 14715257, PMID 22814230; settings: cited from earlier work
[6] = system: histones H2/H3 and H4 of HT29 cells; parameters: method as in PMID 15716589, PMID 22814230; settings: cited from earlier work
[7] = system: MCF7; experiment: MTT assay, MCF7 cells; type: cell-based; settings: Homo sapiens, means of four experiments, na = not active, read-out: In vitro cytotoxic activity (IC50), MCF7
Protocol: as §1, §2, §3

[8] = system: J6; experiment: MTT assay, Jurkat J6 cells; type: cell-based; settings: Homo sapiens, means of four experiments, na = not active, read-out: In vitro cytotoxic activity (IC50), J6
Protocol: as §1, §2, §3

[9] = system: histone deacetylase HDAC1; parameters: method as in PMID 14715257, PMID 15716589, PMID 16702808, PMID 17234448, PMID 22814230; settings: cited from earlier work

Compound | antitumor activity across all cell lines tested [1] | IC50 [2] [nM] | IC50 [3] [nM] | IC50 [4] [nM] | concentration inducing the same effect on the cell cycle (G0/G1 arrest) [5] [µM] | further results
CCCCCCCCC(O[Si](C)(C)C(C)(C)C)C(CCCCCCCC(=O)OC)O[Si](C)(C)C(C)(C)C (racemic) [Compound 10, Rac-erythro-methyl 9,10-bis((tert-butyldimethylsilyl)oxy)octadecanoate] | no activity |  |  |  |  | 
CCCCCCCCC(O[Si](C)(C)C(C)(C)C)C(CCCCCCCC(=O)O)O[Si](C)(C)C(C)(C)C (racemic) [Compound 13, Rac-erythro-9,10-bis((tert-butyldimethylsilyl)oxy)octadecanoic Acid] | showed antitumor activity | 25.3 ± 0.27 | 131.8 ± 0.21 | 41.95 ± 0.29 |  | 
CCCCCCCCC[C@@H](O)CCCCCCCC(=O)O [(R)-9-HSA, (R)-9-hydroxystearic acid] |  |  |  |  | 50 | histone acetylation (free acid) [6]: induces hyperacetylation of histone H4
CCCCCCCCC[C@H](CCCCCCCC(=O)OC)O[Si](C)(C)C(C)(C)C [Compound 3, Methyl (R)-9-((tert-butyldimethylsilyl)oxy)octadecanoate] | showed antitumor activity | 84.76 ± 0.1 | 133.7 ± 0.32 | 29.33 ± 0.23 |  | IC50 [7]: 134 ± 0.27 nM; IC50 [8]: 151.6 ± 0.31 nM
CCCCCCCCCC(O)CCCCCCCC(=O)O (stereo not drawn) [Compound 9-HSA, 9-hydroxystearic acid] |  |  |  |  | 100 | inhibition of histone deacetylase HDAC1 [9]: selectively inhibits

From publication PMC11820896, “New Compounds with Enhanced Biological Activity Through the Strategic Introduction of Silylated Groups into Hydroxystearic Acids” (Molecules, 2025)
